Measurements from patent US4593019A, “N^6 -tricyclic adenosines” (Warner-Lambert Company, priority 1984, dated 1986).

Columns and labels:
A2 receptor = biological target: T1, A2 receptor (Rattus norvegicus, UniProt P30543); experiment: Adenosine Receptor Binding - A2 Receptor Affinity (RBA2), [3H]NECA displacement; conditions: 4 nM [3H]NECA, 50 nM N6-cyclopentyladenosine, rat striatal membranes, 25° C., 60 min; read-out: RBA-2 IC50 (adenosine A2 receptor affinity)
T1 construct: 5 mg original tissue weight of rat weight of rat striatal membranes; tissue Pel-Freez (Rogers, Ark.); host or cells: rat striatum (membranes)
T1 sequence (P30543 whole entry): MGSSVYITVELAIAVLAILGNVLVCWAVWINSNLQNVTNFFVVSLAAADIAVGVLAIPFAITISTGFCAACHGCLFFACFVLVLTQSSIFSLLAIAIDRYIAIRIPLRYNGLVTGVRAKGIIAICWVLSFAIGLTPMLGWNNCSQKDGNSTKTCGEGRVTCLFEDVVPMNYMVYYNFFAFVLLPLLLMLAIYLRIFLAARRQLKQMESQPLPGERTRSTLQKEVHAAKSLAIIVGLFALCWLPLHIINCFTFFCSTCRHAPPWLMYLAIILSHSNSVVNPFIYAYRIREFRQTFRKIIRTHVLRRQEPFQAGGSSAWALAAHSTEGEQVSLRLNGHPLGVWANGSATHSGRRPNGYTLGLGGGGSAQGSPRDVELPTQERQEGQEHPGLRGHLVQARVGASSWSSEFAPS
Procedure: Adenosine Receptor Binding--A2 Receptor Affinity (RBA2)
Brains from 200-500 g mixed sex Sprague-Dawley rats were purchased from Pel-Freez (Rogers, Ark.). […] Brains were thawed and then kept on ice while the striata were dissected out. […] The suspension was centrifuged at 50,000 xg for ten minutes, the supernatant discarded, the pellet resuspended in 10 vol ice-cold Tris as above, recentrifuged, resuspended at 1 g/5 ml, and stored in plastic vials at -70° C. […] When needed, tissue was thawed at room temperature, disrupted in a Polytron, and kept on ice until used. […]
Nonspecific binding was defined as binding in the presence of 100 μM N^6 -cyclopentyladenosine, and specific binding was defined as total binding minus nonspecific binding. The IC50 was calculated by weighted nonlinear least squares curve-fitting to the mass-action equation. […]
Weighting factors were calculated under the assumption that the standard deviation was proportional to the predicted value of Y. Nonspecific binding was treated as a very large (infinite) concentration of drug in the computer analysis.

[1] = Mouse Activity and Screen Test Procedure (MAST): inhibition of spontaneous locomotion; assay type: in vivo, mouse (male Swiss-Webster); conditions: one hour prior to testing, accumulated over one hour
Procedure: (§1) Nine unfasted Swiss-Webster male mice weighing 20-30 g are equally divided into three groups for each drug dose to be tested. That is, data for each dose level was generated by three separate groups of three mice each.
(§2) A minimum of three dose levels (10, 30, and 100 mg/kg) are tested for each drug. Treatments are administered intraperitoneally one hour prior to testing. All dosages are calculated as parent compound and given in volumes of 10 ml/kg. Compounds are dissolved or suspended in 0.2% Methocel. Control animals are injected with Methocel.
A two part testing procedure is started one hour postinjection. […] Briefly this test consists of placing mice on individual wire screens which are then rotated 180 degrees at the start of a 60 second observation period. The number of mice falling off the inverted screen is recorded.
The actophotometer consists of a cylindrical chamber whose center is occupied by another cylinder which contains the illumination for six photocells located on the perimeter of the chamber. Six light-beam interruptions equal one count. Locomotor activity is recorded by computer at ten minute intervals for 60 minutes.
The data obtained from the screen test are expressed as percent of mice falling off the screen. Data derived from locomotor activity of drug treated mice are compared to the activity of vehicle treated animals and are expressed as percent inhibition of spontaneous locomotion. All percentages reported for inhibition of locomotion (LI) are based upon data accumulated for one hour. […] An overall dose rating is obtained by the following criteria:
LAD refers to the lowest dose at which an A rating is achieved. […] The compounds are identified in the examples.

mice = experiment: Mouse Activity and Screen Test Procedure (MAST): screen test failure; assay type: in vivo, mouse (male Swiss-Webster); conditions: one hour postinjection
Text: The compounds of the invention are new chemical substances which are useful as pharmaceutical agents for the treatment of psychoses. The antipsychotic activity of representative compounds of the invention was established by the Mouse Activity and Screen Test Procedure (MAST) described below.
as §1, §2
A two part testing procedure is started one hour postinjection. First, the screen test (ST) is performed (see Pharmac. Biochem. Behav. 6, 351-353, 1977). Briefly this test consists of placing mice on individual wire screens which are then rotated 180 degrees at the start of a 60 second observation period. The number of mice falling off the inverted screen is recorded.
The data obtained from the screen test are expressed as percent of mice falling off the screen. Data derived from locomotor activity of drug treated mice are compared to the activity of vehicle treated animals and are expressed as percent inhibition of spontaneous locomotion. All percentages reported for inhibition of locomotion (LI) are based upon data accumulated for one hour. Both phases of testing are graded: A=60-100%; C=31-59%; and N=0-30%. An overall dose rating is obtained by the following criteria: […]

SMILES: OC[C@H]1O[C@@H](n2cnc3c(NCC4c5ccccc5Oc5ccccc54)ncnc32)[C@H](O)[C@@H]1O [Example 4, N^6-[Xanthene-9-methylamino]adenosine]
- IC50 (A2 receptor): 65 nM
- Inhibition of Mouse Locomotion Activity ([1]; 1 mg/kg i.p.): -5%
- Inhibition of Mouse Locomotion Activity ([1]; 3 mg/kg i.p.): 17%
- Inhibition of Mouse Locomotion Activity ([1]; 10 mg/kg i.p.): 72%
- Inhibition of Mouse Locomotion Activity ([1]; 30 mg/kg i.p.): 91%
- Inhibition of Mouse Locomotion Activity ([1]; 100 mg/kg i.p.): 91%
- Screen Test Failure (percent of mice falling off the screen) (mice; 1 mg/kg i.p.): 0%
- Screen Test Failure (percent of mice falling off the screen) (mice; 3 mg/kg i.p.): 0%
- Screen Test Failure (percent of mice falling off the screen) (mice; 10 mg/kg i.p.): 0%
- Screen Test Failure (percent of mice falling off the screen) (mice; 30 mg/kg i.p.): 11%
- Screen Test Failure (percent of mice falling off the screen) (mice; 100 mg/kg i.p.): 44%
